Experimental data: article PMC8468767, “Optimisation of a Microfluidic Method for the Delivery of a Small Peptide” (Pharmaceutics, 2021)
≈ marks a conversion by molar mass, not a printed value. Where “and” joins values, the source holds several entries; their conditions need not be identical. Equal entries are not always repeated. Bridge positions count the residues as written; N and C are the ends. Square brackets hold non-standard residues; d marks the D form. Peptide text beside a SMILES is read from it. * marks the point of attachment. Hydrocinnamoyl = O=C(CCc1ccccc1)*; dCha = N[C@H](CC1CCCCC1)C(=O)O; Orn = NCCC[C@H](N)C(=O)O

Columns and labels:
[1] = Plasma pharmacokinetics after a single IV dose in mice; assay type: in vivo; conditions: male C57BL/6J mice, LC-MS/MS
Protocol: The C5aR1 peptide antagonist concentrations were quantified by a previously developed and validated LC–MS/MS method. Briefly, the LC–MS/MS system consisted of an API 3200 (AB SCIEX) triple quadrupole LC–MS/MS mass spectrometer coupled with an Agilent 1200 series HPLC system (Agilent Technologies, Santa Clara CA, USA). For sample processing, 10 µL of the solution containing the C5aR1 peptide antagonist was mixed with 10 µL of internal standard (AcF-[OPdChaWR]) dissolved in solvent (ACN) followed by sample processing, extraction, supernatant isolation, drying, and reconstitution in a 75% methanol-in-water solution. A small volume of processed sample (approximately 50 µL) was used for the LC–MS measurement. The autosampler was set at 4 °C and the column oven temperature was maintained in the range of 25 ± 1 °C. The system control and data acquisition were executed by Analyst software (AB SCIEX, Applied Biosystems Inc., Framingham, MA, USA, version 1.5.1). Chromatographic separation was implemented using a Kinetex EVO C18 analytical column (100 mm × 2.1 mm, 100 Å, 5 µm, Phenomenex Inc., Torrance, CA, USA) under binary gradient conditions using mobile phase A (milliQ water containing 0.1% formic acid) and mobile phase B (acetonitrile containing 0.1% formic acid) with a variable flow rate, as described in Kumar et al..
The plasma pharmacokinetic (PK) profile and biodistribution of peptide-loaded nanoparticles (1 mg/kg equivalent dose of free peptide) vs. free peptide were assessed in mice after intravenous (IV; via tail vein) dosing. Serial blood samples were collected via a tail vein using a microsampling technique. Blood samples were collected at 0.04, 0.25, 0.5, 0.75, 1, 1.5, […], 4, 6, and 24 h for both groups and then 48, 72, 96, and 120 h for the nanoparticle group. The blood samples were centrifuged at 2000× g for 10 min at 4 °C, and the separated plasma samples (10 µL) were collected, diluted with 100 µL of milliQ water and 10 µL of internal standard, filtered through Microcon®-10 centrifugal filters (Merck, Melbourne, VIC, Australia) to separate nanoparticles from released peptide, and stored at −80 °C until time of analysis. For tissue distribution, on the terminal day, i.e., day 1 for native peptide and day 5 for the nanoparticle group, animals were transcardially perfused using PBS solution to remove circulatory peptide/formulation, and tissue samples were collected, processed as described in our previously published method, and filtered as mentioned above.
On the day of analysis, samples were processed for C5aR1 peptide antagonist concentrations using the above-mentioned LC–MS/MS method as described previously. […]

[2] = Solubility of the peptide in water; assay type: physicochemical; conditions: method not described
[3] = mice, cited from earlier work
Description: The hexapeptide, phenylpropanoic acid-[ornithine-proline-d-cyclohexylalanine-tryptophan-arginine] (HC-[OPdChaWR]) is an antagonist of the C5a receptor 1 (C5aR1) of the innate immune complement cascade.

In the case of `N=C(N)NCCC[C@@H]1NC(=O)[C@H](Cc2c[nH]c3ccccc23)NC(=O)[C@@H](CC2CCCCC2)NC(=O)[C@@H]2CCCN2C(=O)[C@@H](NC(=O)CCc2ccccc2)CCCNC1=O` [HC-[OPdChaWR], phenylpropanoic acid-[ornithine-proline-d-cyclohexylalanine-tryptophan-arginine]] (Hydrocinnamoyl-[Orn]P[dCha]WR; lactam 1-C), the “time for which plasma peptide levels are measurable after dosing” value ([1]; single IV 1 mg/kg peptide equivalent, plasma) is reported as “unmeasurable after 6 h post-dosing”, the MRT ([1]; mouse, single IV 1 mg/kg peptide equivalent, plasma, two-compartmental model, n = 4, read-out: mean residence time (MRT)) is reported as 45.6 min and the AUC(0-t) ([1]; mouse, single IV 1 mg/kg, plasma, linear trapezoidal rule, n = 4, read-out: systemic exposure (AUC0-t)) is reported as 3830 ng·h/mL. For the same compound, the half-life ([1]; mouse, single IV (tail vein) 1 mg/kg peptide equivalent, plasma filtered (Microcon-10) so released peptide is measured, two-compartmental model, n = 4, read-out: terminal elimination half-life (t1/2) (converted)) was 50.4 min, the solubility in water [2] was 1000 µg/mL (≈ 1190 µM) and the “plasma half-life in vivo” value ([3]; intravenous (IV) injection) was 10.2 min. The “t1/2 values reported previously” value ([3]; listed as free peptide) was 10.2 min and 19.8 min.
